Source: patent US20190307820A1, “COMPOSITIONS AND METHODS OF USING STAT1/3 INHIBITORS WITH ONCOLYTIC HERPES VIRUS” (priority 2016, published 2019)
pIC50: −log10 of the molar value. Where two headings read alike, the source gives them in different places.

Tests used:
pSTAT1 (Tyr701) = assay: Western blot of STAT 1 / pSTAT1 (Tyr701) in BV2 microglia cells; format: cell-based, mouse
Description: BV2 cells were pre-treated with vehicle or C16 (1 μM) for 2 hours and then incubated with vehicle or oHSV-1 (G207) at an MOI of 1 or oHSV-1 and C16 combination for 24 hours. Total protein was harvested and subjected to western blot assay. β-actin expression was used for loading control (means±SE).
BV2 cells were treated with either vehicle or Lps (1 μg/ml) or Lps (1 μg/ml) with C16 (1 μM) for 24 hours. Total protein was harvested and subjected to western blot assay. β-actin expression was used for loading control (means±SE).
Total protein was harvested with sample buffer (125 mM Tris-HCL, 50% Glycerol, […] and 5% 2-mercaptoethanol) and boiled for 5 minutes. Protein samples were subjected to SDS-PAGE (8% gel), transferred to nitrocellulose membranes and blocked in 5% nonfat milk (Bio Rad) in TBS-Tween 20 (TBS-T) for 1 hour at room temperature. The membranes were then incubated with primary antibody against β-actin at 1:1000 (Cell Signaling, Danvers, Mass.) or anti-STAT1 antibody at 1:1000 (Cell Signaling, Danvers, Mass.) or anti-STAT3 antibody at 1:1000 (Cell Signaling, Danvers, Mass.) or anti-phospho STAT1 antibody (Tyr701) at 1:1000 (Cell Signaling, Danvers, Mass.) or anti-phospho STAT3 antibody (Tyr705) at 1:1500 (Cell Signaling, Danvers, Mass.) or anti-phosphor-eIF2a antibody (ser51) at 1:1000 (Cell Signaling, Danvers, Mass.) or anti-ICP27 antibody at 1:1000 (Abcam, Cambridge, Mass.) or anti-ICP4 antibody at 1:750 (Abcam, Cambridge, Mass.) for overnight at 4° C. The membranes were washed the next day with TBS-T three times and incubated with corresponding secondary antibody at 1:3000 (Perkim Elmer, Boston, Mass.), for 1 hour at room temperature. Membranes were washed with TBS-T three times before visualization using ECL reagent (Perkim Elmer, Boston, Mass.) and VersaDoc imaging system (Bio-Rad). Band density was measured by using ImageJ software (NIH, Bethesda, Md.).

U87 cells = assay: MTT cytotoxicity assay, U87 cells; format: cell-based; conditions: Homo sapiens, U-87 MG
Description: (FIG. 5A) U87 cells were treated with HrR3 at a MOI of 5 and indicated concentration of nifuroxazide for 6 hours. Extracted protein was then subjected to western blot assay. (FIG. 5B) U87 cells were treated with indicated concentration of HrR3 or nifuroxazide or stattic or in combination for 72 hours. Cytotoxicity was measured by MTT assay. (FIG. 5C) Relative mRNA level (2^−ΔΔCT) is shown. Data are presented as mean SD, *P<0.05 vs corresponding vehicle treatment.
Expression of key regulator of the Type1 interferon signaling, STAT1 and STAT3, was determined in nifuroxazide treated oHSV-1 infected U87 cells.

[1] = system: oHSV-1 (HrR3) in U87 cells; assay: oHSV-1 (HrR3) replication in U87 cells, titrated in vero cells; format: cell-based, HSV-1; conditions: HrR3 MOI-0.1, 48 hours
Description: FIGS. 2A-2B contain charts that show the effect of nifuroxazide on replication of oHSV-1. (FIG. 2A) Indicated cells were infected with HrR3 viruses at MOI-0.1. Viruses were harvested at 48 hours post-infected and titrated in vero cells. Data are presented as mean SD, *P<0.05 vs corresponding vehicle treatment. (FIG. 2B) U87 or glio cells were treated with HrR3 at a MOI of 1 and indicated concentration of nifuroxazide for 48 hours. Total DNA was extracted and subjected to qPCR to detect HSV-1 using ICP27 primer. nifuroxazide mediated oHSV-1% increase was represented in the figure.
In this example, the effect of nifuroxazide on oHSV-1 anti-tumor efficacy was evaluated. oHSV-1 infected treated glioma cells were incubated with low concentration of nifuroxazide. Replication increased 27- and 40-fold with 0.5 μM nifuroxazide and 10 μM nifuroxazide treated U87 cells respectively. Similarly, virus replication increased 0.8- and 4.7-fold virus in 9L cells treated with 0.5 μM nifuroxazide and 10 μM nifuroxazide respectively (FIG. 2A).

pSTAT3 = target: T1, pSTAT3 (Homo sapiens, UniProt P40763); assay: Western blot of phosphorylated STAT3 in harvested U87 tumour tissues; format: in vivo, mice; conditions: HrR3 with 50 mg/kg or 100 mg/kg NF i.p., day 10
T1 construct: from tissue; host or cells: subcutaneous U87 tumours harvested from mice
T1 sequence (P40763 whole entry): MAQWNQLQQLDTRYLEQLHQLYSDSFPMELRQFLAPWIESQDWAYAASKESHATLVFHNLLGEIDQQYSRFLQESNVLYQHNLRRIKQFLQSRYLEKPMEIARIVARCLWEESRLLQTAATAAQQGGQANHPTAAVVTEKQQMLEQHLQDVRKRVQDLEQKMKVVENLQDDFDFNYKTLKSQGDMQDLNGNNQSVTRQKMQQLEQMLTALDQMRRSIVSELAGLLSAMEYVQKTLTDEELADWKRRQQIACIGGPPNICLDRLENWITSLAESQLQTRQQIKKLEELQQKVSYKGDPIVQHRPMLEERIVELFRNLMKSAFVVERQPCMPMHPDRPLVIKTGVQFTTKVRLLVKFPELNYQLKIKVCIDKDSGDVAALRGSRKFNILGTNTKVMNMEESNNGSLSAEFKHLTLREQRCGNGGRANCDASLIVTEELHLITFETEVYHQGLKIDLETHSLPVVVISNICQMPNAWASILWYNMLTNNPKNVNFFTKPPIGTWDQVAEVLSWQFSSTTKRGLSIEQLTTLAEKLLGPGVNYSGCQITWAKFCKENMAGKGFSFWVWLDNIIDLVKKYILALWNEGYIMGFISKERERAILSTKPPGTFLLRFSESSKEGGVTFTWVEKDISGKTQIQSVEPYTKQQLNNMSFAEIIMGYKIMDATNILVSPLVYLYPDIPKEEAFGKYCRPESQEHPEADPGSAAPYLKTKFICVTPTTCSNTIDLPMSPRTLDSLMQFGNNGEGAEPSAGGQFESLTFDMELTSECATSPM
Description: FIGS. 19A-C show STAT inhibition by the combination of NF and oHSV-1. FIG. 19A and FIG. 19B, U87 cells (A) or CT26 cells (B) were treated with the indicated concentrations of HrR3 or NF or a combination. Total protein was extracted after 24 hours and subjected to western blot analysis. Band intensity was measured using Image J software and normalized to β-actin. Samples were run in triplicate and data are as means±S.E. Statistically significant differences are indicated by P<0.05 or P<0.01. FIG. 19C, Mice subcutaneously bearing U87 tumors were intratumorally injected with a single dose of HrR3 virus (1×10^6 PFU) and/or peritoneally injected doses of NF as indicated. Tumors were harvested on day 10 post treatment and total protein was extracted from a mouse of each treatment group and subjected to western blot analysis in triplicate. Results are reported as means±S.E.
To further confirm that NF is able to inhibit STAT activation in vivo, subcutaneously implanted U87 tumours were treated with either HrR3 alone or in combination with 50 mg/kg NF or 100 mg/kg NF. Expression levels of phosphorylated STAT1/3 in harvested tumour tissues were measured by western blotting.

With `O=C1Nc2ccc3ncsc3c2/C1=C/c1c[nH]cn1` [C16, 6,8-Dihydro-8-(1H-imidazol-5-ylmethylene)-7H-pyrrolo[2,3-g]benzothiazol-7-one] the “upregulation of pSTAT1 (Tyr701) induced by oHSV-1” value (pSTAT1 (Tyr701); C16 1 μM, G207 MOI of 1, 24 hours) was “significantly suppress the upregulation”, the “expression level of STAT 1” value (pSTAT1 (Tyr701); G207 infected microglial cells) was “reduced after C16 treatment” and the “STAT 1 phosphorylation, LPS treated” value (pSTAT1 (Tyr701); Lps 1 μg/ml, C16 1 μM, 24 hours) was “inhibition in STAT 1/3 phosphorylation”.
`O=C(N/N=C/c1ccc([N+](=O)[O-])o1)c1ccc(O)cc1` [nifuroxazide, Benzoic acid, 4-hydroxy-, [(5-nitro-2-furanyl)metylene]hydrazide] was tested, and the pIC50 (U87 cells; in combination with MOI of 1 HrR3, 72 hours, read-out: IC50, nifuroxazide dose in combination) was roughly 5.40, the pIC50 (U87 cells; individual dose, 72 hours, MTT assay, read-out: Inhibitory concentration 50% (IC50)) was roughly 4.70 and the Replication increased ([1]; 0.5 μM nifuroxazide) was 27 fold. The Replication increased ([1]; 10 μM nifuroxazide) was 40 fold and the “virally induced upregulation of pSTAT3” value (pSTAT3) was “inhibited in a dose-dependent fashion”.
